Where two headings read alike, the source gives them in different places.
What was measured:
[1] = biological target: T1, nuclear factor-kappa B (NF-kB)-inducing kinase (NIK) (Homo sapiens, UniProt Q99558); assay: NIK enzyme inhibition assay (Transcreener ADP fluorescence polarization, NIK ADP-FP); assay type: biochemical
T1 construct: made in house; host or cells: baculovirus-infected insect cells
Method: NIK Enzyme Inhibition Assay:
The ability of the nuclear factor-kappa B (NF-kB)-inducing kinase (NIK) to catalyze the hydrolysis of adenosine-5′-triphosphate (ATP) was monitored using the Transcreener ADP (adenosine-5′-diphosphate) assay (BellBrook Labs). […] Reactions were quenched by the addition of 20 mM 2,2′,2″,2′″-(ethane-1,2-diyldinitrilo)tetraacetic acid and 0.01% Brij 35. The tracer bound to the antibody was displaced by the ADP generated during the NIK reaction, which causes a decrease in fluorescence polarization that was measured by laser excitation at 633 nm with a Fluorescence Correlation Spectroscopy Plus reader (Evotec AG). Equilibrium dissociation constant (Ki) values for NIK inhibitors are calculated from plots of activity vs. inhibitor concentration using Morrison's quadratic equation that accounts for the potential of tight binding, and by also applying the conversion factor that accounted for competitive inhibition and the concentration of substrate used in the assay relative to its Michaelis constant (Km).

[2] = tested on: REL-A (p65) nuclear translocation in HeLa cells; assay: REL-A (p65) nuclear translocation assay in HeLa cells, TNF-α stimulated (classical NF-kB signaling), high content imaging; assay type: cell-based; settings: compound 4.5 h, then 10 ng/mL TNF-α for 30 minutes, read-out: REL-A HeLa Transloc Assay (IC50)
Procedure, shortened: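 HeLa cells in medium with 10% fetal bovine serum were exposed to compounds (0.2% DMSO final) for 4.5 hours, then stimulated with 10 ng/mL TNF-α for 30 minutes. After fixation in 4% paraformaldehyde and permeabilization with 0.1% Triton X-100, cells were stained with 400 ng/mL anti-REL-A (p65) antibody, an Alexa488 secondary and DRAQ5. Opera imaging quantified the nuclear-to-cytoplasmic signal ratio to give IC50.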

[3] = tested on: p52 (NF-kB2) nuclear translocation in HeLa cells; assay: p52 (NF-kB2) nuclear translocation assay in HeLa cells, anti-lymphotoxin beta receptor antibody stimulated (non-classical NF-kB signaling), high content imaging; assay type: cell-based; settings: 100 ng/mL anti-lymphotoxin beta receptor antibody for 5 hours, read-out: p52 HeLa Transloc Assay (IC50)
Procedure, shortened: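 HeLa cells in 10% FBS medium were treated with compound (0.2% DMSO final) and stimulated with 100 ng/mL anti-lymphotoxin beta receptor antibody for 5 h. Fixed cells were immunostained for p52 and imaged with DRAQ5 nuclear stain. Translocation is the nuclear to cytoplasmic intensity ratio, […].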

T1 sequence (Q99558 whole entry): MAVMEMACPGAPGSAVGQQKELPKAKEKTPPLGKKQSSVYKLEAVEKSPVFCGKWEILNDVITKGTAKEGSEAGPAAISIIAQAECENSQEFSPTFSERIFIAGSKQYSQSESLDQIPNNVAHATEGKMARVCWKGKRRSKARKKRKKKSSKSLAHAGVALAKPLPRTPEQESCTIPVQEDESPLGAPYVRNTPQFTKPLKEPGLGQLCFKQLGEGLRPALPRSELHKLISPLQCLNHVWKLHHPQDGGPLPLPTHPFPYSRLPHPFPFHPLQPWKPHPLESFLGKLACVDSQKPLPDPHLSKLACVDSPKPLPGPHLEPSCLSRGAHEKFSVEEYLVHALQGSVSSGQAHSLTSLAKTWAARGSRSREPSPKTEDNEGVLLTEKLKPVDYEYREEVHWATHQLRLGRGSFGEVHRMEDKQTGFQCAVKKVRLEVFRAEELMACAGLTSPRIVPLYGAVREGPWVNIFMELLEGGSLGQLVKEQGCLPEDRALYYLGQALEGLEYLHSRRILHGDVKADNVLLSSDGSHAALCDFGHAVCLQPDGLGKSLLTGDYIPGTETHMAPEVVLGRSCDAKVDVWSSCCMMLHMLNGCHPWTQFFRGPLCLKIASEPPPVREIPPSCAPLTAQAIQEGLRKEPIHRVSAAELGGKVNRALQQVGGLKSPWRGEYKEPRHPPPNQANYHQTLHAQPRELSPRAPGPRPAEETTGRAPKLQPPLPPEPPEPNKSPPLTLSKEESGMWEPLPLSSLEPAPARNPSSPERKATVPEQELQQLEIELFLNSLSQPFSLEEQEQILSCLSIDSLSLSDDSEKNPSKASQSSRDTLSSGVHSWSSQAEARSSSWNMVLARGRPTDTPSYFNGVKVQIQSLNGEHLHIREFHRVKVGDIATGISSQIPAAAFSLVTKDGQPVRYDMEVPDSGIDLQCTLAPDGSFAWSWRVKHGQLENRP

SMILES | Ki [1] | IC50 ([2]; Homo sapiens, HeLa) | IC50 ([3]; Homo sapiens) | Ki ([1]; purified NIK 0.5 nM, 10 μM ATP, pH 7.2, Ki from Morrison's quadratic equation) | IC50 [2] | IC50 [3]
CN1CC[C@@](O)(C#Cc2ccc(F)c(-c3ncc(N)c(C(N)=O)n3)c2)C1=O [Example 110, 5-amino-2-[2-fluoro-5-[2-[(3R)-3-hydroxy-1-methyl-2-oxo-pyrrolidin-3-yl]ethynyl]phenyl]pyrimidine-4-carboxamide] | 0.14 nM | ≥ 2000 nM | 84.3 nM | – | – | –
CN1CC[C@@](O)(C#Cc2cccc(-c3nc(OC4COC4)cc(C(N)=O)n3)c2)C1=O [Example 99, 2-[3-[2-[(3R)-3-hydroxy-1-methyl-2-oxo-pyrrolidin-3-yl]ethynyl]phenyl]-6-(oxetan-3-yloxy) pyrimidine-4-carboxamide] | 0.48 nM | ≥ 20000 nM | 104 nM | – | – | –
Cc1ccc(-c2cc(C(N)=O)nc(-c3cccc(C#C[C@]4(O)CCN(C)C4=O)c3)c2)cn1 [Example 126, 6-[3-[2-[(3R)-3-hydroxy-1-methyl-2-oxo-pyrrolidin-3-yl]ethynyl]phenyl]-4-(6-methyl-3-pyridyl)pyridine-2-carboxamide] | 0.05 nM | ≥ 2000 nM | 122 nM | – | – | –
CN1CC[C@@](O)(C#Cc2cccc(-c3nc(C(N)=O)cc(-c4cc(F)ccc4F)n3)c2)C1=O [Example 98, 6-(2,5-difluorophenyl)-2-[3-[2-[(3R)-3-hydroxy-1-methyl-2-oxo-pyrrolidin-3-yl]ethynyl]phenyl]pyrimidine-4-carboxamide] | 0.23 nM | ≥ 20000 nM | 82 nM | – | – | –
CN1CC[C@@](O)(C#Cc2cccc(-c3cc4cc[nH]c4c(C(N)=O)n3)c2)C1=O [Example 49, 5-[3-[2-[(3R)-3-hydroxy-1-methyl-2-oxo-pyrrolidin-3-yl]ethynyl]phenyl]-1H-pyrrolo [2,3-c]pyridine-7-carboxamide] | 0.05 nM | ≥ 2000 nM | 8.2 nM | – | – | –
CN1CC[C@@](O)(C#Cc2cccc(-c3nc(C(N)=O)cn4ccnc34)c2)C1=O [Example 48, 8-[3-[2-[(3R)-3-hydroxy-1-methyl-2-oxo-pyrrolidin-3-yl]ethynyl]phenyl] imidazo[1,2-a]pyrazine-6-carboxamide] | – | – | – | 0.39 nM | ≥ 20000 nM | 122 nM
CN1CC[C@@](O)(C#Cc2cccc(-c3nc4c(c(C(N)=O)n3)CCCC4)c2)C1=O [Example 34, 2-[3-[2-[(3R)-3-hydroxy-1-methyl-2-oxo-pyrrolidin-3-yl]ethynyl]phenyl]-5,6,7,8-tetrahydroquinazoline-4-carboxamide] | 1.42 nM | > 20000 nM | 138 nM | – | – | –
CN1CC[C@@](O)(C#Cc2cccc(-c3ncc(N[C@H]4CCOC4)c(C(N)=O)n3)c2)C1=O [Example 142, 2-[3-[2-[(3R)-3-hydroxy-1-methyl-2-oxo-pyrrolidin-3-yl]ethynyl]phenyl]-5-[[(3S)-tetrahydrofuran-3-yl]amino] pyrimidine-4-carboxamide] | 0.24 nM | ≥ 20000 nM | 14.8 nM | – | – | –
COCCNc1cnc(-c2cc(C#C[C@]3(O)CCN(C)C3=O)c(F)cc2F)nc1C(N)=O [Example 153, 2-[2,4-difluoro-5[2-[(3R)-3-hydroxy-1-methyl-2-oxo-pyrrolidin-3-yl]ethynyl]phenyl]-5-(2-methoxyethylamino) pyrimidine-4-carboxamide] | 0.1 nM | > 2000 nM | 45 nM | – | – | –
CN1CC[C@@](O)(C#Cc2cccc(-c3cc(-n4cccn4)cc(C(N)=O)n3)c2)C1=O [Example 52, 6-[3-[2-[(3R)-3-hydroxy-1-methyl-2-oxo-pyrrolidin-3-yl]ethynyl]phenyl]-4-pyrazol-1-yl-pyridine-2-carboxamide] | 0.13 nM | ≥ 20000 nM | 26 nM | – | – | –
CN1CC[C@@](O)(C#Cc2cccc(-c3nc(C(N)=O)c(N)cc3F)c2)C1=O [Example 59, 3-amino-5-fluoro-6-[3-[2-[(3R)-3-hydroxy-1-methyl-2-oxo-pyrrolidin-3-yl]ethynyl]phenyl] pyridine-2-carboxamide] | 0.16 nM | 6320 nM | 23.2 nM | – | – | –
CN1CC[C@@](O)(C#Cc2cccc(-c3nc(C(N)=O)c(NC4COC4)cc3F)c2)C1=O [Example 79, 5-fluoro-6-[3-[2-[(3R)-3-hydroxy-1-methyl-2-oxo-pyrrolidin-3-yl]ethynyl]phenyl]-3-(oxetan-3-ylamino)pyridine-2-carboxamide] | 0.05 nM | ≥ 20000 nM | 9.86 nM | – | – | –
CN1CC[C@@](O)(C#Cc2cccc(-c3nc(C(N)=O)cc(N4CCc5ccccc54)n3)c2)C1=O [Example 20, 2-[3-[2-[(3R)-3-hydroxy-1-methyl-2-oxo-pyrrolidin-3-yl]ethynyl]phenyl]-6-indolin-1-yl-pyrimidine-4-carboxamide] | 0.79 nM | 19100 nM | 374 nM | – | – | –
CN1CC[C@@](O)(C#Cc2cccc(-c3nc(C(N)=O)c4ccc(F)cc4n3)c2)C1=O [Example 43, 7-fluoro-2-(3-[2-[(3R)-3-hydroxy-1-methyl-2-oxopyrrolidin-3-yl]ethynyl]phenyl)quinazoline-4-carboxamide] | 0.08 nM | > 20000 nM | 14.1 nM | – | – | –
CN1CC[C@@](O)(C#Cc2cccc(-c3cc(OC(F)F)cc(C(N)=O)n3)c2)C1=O [Example 162, 4-(difluoromethoxy)-6-[3-[2-[(3R)-3-hydroxy-l-methyl-2-oxo-pyrrolidin-3-yl]ethynyl]phenyl]pyridine-2-carboxamide] | < 0.05 nM | > 2000 nM | 67 nM | – | – | –
CN1CC[C@@](O)(C#Cc2cccc(-c3nc4c(c(C(N)=O)n3)CCC4)c2)C1=O [Example 38, 2-[3-[2-[(3R)-3-hydroxy-1-methyl-2-oxo-pyrrolidin-3-yl]ethynyl]phenyl]-6,7-dihydro-5H-cyclopenta [d]pyrimidine-4-carboxamide] | 0.19 nM | > 20000 nM | 49.1 nM | – | – | –
CN1CC[C@@](O)(C#Cc2cccc(-c3cc(C(F)F)cc(C(N)=O)n3)c2)C1=O [Example 173, 4-(difluoromethyl)-6-[3-[2-[(3R)-3-hydroxy-1-methyl-2-oxo-pyrrolidin-3-yl]ethynyl]phenyl]pyridine-2-carboxamide] | 0.31 nM | > 2000 nM | 108 nM | – | – | –
Cc1ccc(-c2cc(C(N)=O)nc(-c3cccc(C#C[C@]4(O)CCN(C)C4=O)c3)n2)cn1 [Example 95, 2-[3-[2-[(3R)-3-hydroxy-1-methyl-2-oxo-pyrrolidin-3-yl]ethynyl]phenyl]-6-(6-methyl-3-pyridyl)pyrimidine-4-carboxamide] | 0.49 nM | ≥ 20000 nM | 55.2 nM | – | – | –
CN1CCC(O)(C#Cc2cccc(-c3nc(C(N)=O)cn4ccnc34)c2)C1=O (stereo in doubt) [Example 45, 8-(3-[2-[(3S)-3-hydroxy-1-methyl-2-oxopyrrolidin-3-yl]ethynyl]phenyl)imidazo [1,2-a]pyrazine-6-carboxamide] | 0.39 nM | > 20000 nM | 122 nM | – | – | –
Cc1cc(C(N)=O)nc(-c2cc(F)cc(C#C[C@]3(O)CCN(C)C3=O)c2)c1 [Example 168, 6-[3-fluoro-5-[2-[(3R)-3-hydroxy-1-methyl-2-oxo-pyrrolidin-3-yl]ethynyl]phenyl]-4-methyl-pyridine-2-carboxamide] | 0.16 nM | > 2000 nM | 130 nM | – | – | –

— patent US20160185797A1, “ALKYNYL ALCOHOLS AND METHODS OF USE” (Genentech, Inc., priority 2013, published 2016)
